In patent US20240239790A1, “7-Morpholino-1,6-Naphthyridin-5-yl Derivatives and Pharmaceutical Compositions Thereof Useful as DNA-PK Inhibitor” (adMare Therapeutics Society, priority 2021, published 2024):
Where two headings read alike, the source gives them in different places.

Key:
[1] = biological target: T1, DNA-PK phosphorylation at Serine 2056 (Homo sapiens, UniProt P78527); assay: Cellular Assay for Inhibition of DNA-PK Phosphorylation at Serine 2056 in FaDu cells (sandwich ELISA, neocarzinostatin); type: cell-based; conditions: pSer2056 DNA-PK
T1 construct: FaDu cells were purchased from ATCC; host or cells: FaDu
Summary of the method: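 FaDu cells pre-treated with compound (0.3% DMSO) for 1 h, then neocarzinostatin 1 μg/mL final added for 2 h to induce DSBs. Protein-normalised lysates read by sandwich ELISA for total and pSer2056 DNA-PK; % inhibition normalised between DMSO and NCS controls, IC50 from variable-slope log(inhibitor) fit.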

[2] = test system: pH2AX induction in HCT116 ATM-/- multicellular tumour spheroids; assay: Prodrug Radiation Sensitization in Multicellular Tumour Spheroids, inhibition of pH2AX induction following radiation; type: cell-based
Summary of the method: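 HCT116 and FaDu spheroids (~0.5 mm diameter), ATM-deficient lines included, in MEM/10% FBS/10 mM glucose at 37 °C under 20% vs 5% oxygen with stirring. Prodrugs 10 μM down to 3.5 nM, 20 Gy irradiation. pDNA-PK (ser 2056) or pH2AX (ser 139) scored in formalin-fixed cryosections 1 or 2 h post-radiation.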

DNA-PK = biological target: T2, DNA-PK (Homo sapiens, UniProt P78527); assay: DNA-PK Assay for Biochemical Enzymatic Inhibition (ADP Glo Kinase assay); conditions: DNA-PK enzyme
T2 construct: purchased Invitrogen PR9107A
Procedure: A biochemical assay was performed to identify IC50 values against DNA-PK activity in a two-step reaction with a kinase reaction followed by ADP Glo™ Kinase assay Kit (Promega V9102).
Three-fold serial dilutions of compounds in DMSO were prepared in kinase assay buffer (50 mM HEPES pH 7.5, 20 mM MgCl2, 100 mM KCl, 50 μM DTT, 10 μg/ml calf thymus DNA, 0.01% Tween 20). Kinase assay buffer was used to prepare compound treatments to 0.02% DMSO (dimethyl sulphoxide) content. DMSO controls were prepared to produce a maximum and minimum luminescence signal for normalization. Substrate (Anaspec, AS-60210-5) and ATP (Promega V9102) and ATP mix was prepared by dilution in kinase assay buffer for 434.4 μM and 64.4 μM final assay concentrations, respectively. Compounds and control were added to 25 ng DNA-PK enzyme (Invitrogen, PR9107A) diluted in kinase buffer in assay plate (Corning 267459) and incubated for 15 minutes at room temperature prior to addition of substrate and ATP mix.
Throughout the assay, each time a reagent was added to the microplate, it was centrifuged for 1 minute at 1300 rcf. All reagents were added, and incubations carried out at room temperature. The reaction was then incubated for 60 minutes. ADP-ATP standards at 0, 4, 10, 40, 80, and 100% ADP (prepared as specified in the ADP Glo™ Kinase assay kit) were also added to the microplate at a volume equal to the total kinase reaction. The ADP Glo™ Kinase Assay kit was then used to quantify DNA-PK activity: following the 60-minute incubation, a 1:1 volume of ADP Glo reagent was added to all wells, then following a further 45-minute incubation, a 1:1 volume of Kinase Detection Reagent was added to all wells. After this two-step assay, plates were incubated in a Synergy-Neo2 plate reader for 30 minutes with gentle shaking, followed by endpoint luminescent read Luminescence data was normalized by subtracting the background signal and expressing all background-adjusted values as a percentage of the average maximum signal. The data was then expressed as percent inhibition by subtracting from 100% (i.e. maximum luminescent signal will be 0% inhibition) and the resulting data plotted against ten concentration points on a logarithmic scale, using GraphPad Prism. Non-linear regression analysis was performed on each concentration response curve and the log [inhibitor] vs response—variable slope (four parameters) equation was selected to generate IC50 values.

[3] = neocarzinostatin 1 μg/mL, Table 1

IC50 (DNA-PK; Table 1) [nM]	IC50 [1, 3] [nM]	Structure (SMILES)	other results
		Cn1c(COC(=O)Nc2cnc3cc(N4CCOCC4)nc(O[C@H]4CC[C@@H](Nc5ncccn5)CC4)c3c2)cnc1[N+](=O)[O-] [LFA108, (3-methyl-2-nitro-imidazol-4-yl)methyl N-[7-morpholino-5-[4-(pyrimidin-2-ylamino)cyclohexoxy]-1,6-naphthyridin-3-yl]carbamate]	IC50 ([1]; Table 2): 10000 to 30000 nM; EC50 ([2]; Homo sapiens, HCT-116, 20 Gy, 5% O2, inner layers, read-out: Prodrug 5% O2 Inner layers EC50): 10 to 500 nM; EC50 ([2]; Homo sapiens, HCT-116, 20 Gy, 5% O2, outer layers, read-out: Prodrug 5% O2 Outer layers EC50): 500 to 1000 nM; EC50 ([2]; Homo sapiens, HCT-116, 20 Gy, 20% O2, outer layers, read-out: Prodrug 20% O2 Outer layers EC50): 1000 to 10000 nM; IC50 (DNA-PK; Table 2): 10 to 150 nM
10 to 150		O=C(NC1CCOCC1)[C@H]1CC[C@@H](Oc2nc(N3CCOCC3)cc3ncccc23)CC1 [Compound 154b, (1S,4S)-4-((7-morpholino-1,6-naphthyridin-5-yl)oxy)-N-(tetrahydro-2H-pyran-4-yl)cyclohexane-1-carboxamide]	
10 to 150		CC(C)(O)C#Cc1cnc2cc(N3CCOCC3)nc(O[C@H]3CC[C@@H](n4ccnc4)CC3)c2c1 [Compound 159, 4-(5-(((1s,4s)-4-(1H-imidazol-1-yl)cyclohexyl)oxy)-7-morpholino-1,6-naphthyridin-3-yl)-2-methylbut-3-yn-2-ol]	
10 to 150		CN(C)C(=N[C@H]1CC[C@@H](Oc2nc(N3CCOCC3)cc3ncccc23)CC1)N(C)C [Compound 129, 1,1,3,3-tetramethyl-2-((1s,4s)-4-((7-morpholino-1,6-naphthyridin-5-yl)oxy)cyclohexyl)guanidine]	
10 to 150		CN(C)C(=O)c1cnc2cc(N3CCOCC3)nc(O[C@H]3CC[C@@H](n4ccnc4)CC3)c2c1 [Compound 170, 5-(((1s,4s)-4-(1H-imidazol-1-yl)cyclohexyl)oxy)-N,N-dimethyl-7-morpholino-1,6-naphthyridine-3-carboxamide]	
10 to 150		FC1(F)CN(c2cc3ncccc3c(O[C@H]3CC[C@@H](n4ccnc4)CC3)n2)CC(F)(F)O1 [Compound 13, 4-(5-(((1s,4s)-4-(1H-imidazol-1-yl)cyclohexyl)oxy)-1,6-naphthyridin-7-yl)-2,2,6,6-tetrafluoromorpholine]	
		CN(C)C(=O)COc1cnc(NC2CCC(Oc3nc(N4CCOCC4)cc4ncc(N(Cc5ncc([N+](=O)[O-])n5C)S(C)(=O)=O)cc34)CC2)nc1 (stereo not shown) [LFA013, N,N-Dimethyl-2-[2-[[4-[[3-[(1-methyl-5-nitro-imidazol-2-yl)methyl-methylsulfonyl-amino]-7-morpholino-1,6-naphthyridin-5-yl]oxy]cyclohexyl]amino]pyrimidin-5-yl]oxy-acetamide]	IC50 ([1]; Table 2): 1000 to 10000 nM; EC50 ([2]; 20 Gy, 5% O2, inner layers, read-out: Prodrug 5% O2 Inner layers EC50): 10 to 500 nM; EC50 ([2]; 20 Gy, 5% O2, outer layers, read-out: Prodrug 5% O2 Outer layers EC50): 1000 to 10000 nM; EC50 ([2]; 20 Gy, 20% O2, outer layers, read-out: Prodrug 20% O2 Outer layers EC50): 1000 to 10000 nM; EC50 ([2]; value of the (unnamed) effector of the listed prodrug, 20 Gy, 5% O2, inner layers, read-out: Effector 5% O2 Inner layers EC50): 10 to 500 nM; IC50 (DNA-PK; Table 2): 10 to 150 nM
10 to 150	100 to 1000	Cn1cc([C@H]2CC[C@@H](Oc3nc(N4CCOCC4)cc4ncc(OCCN5CCOCC5)cc34)CC2)cn1 [Compound 6, 4-(5-(((1s,4s)-4-(1-methyl-1H-pyrazol-4-yl)cyclohexyl)oxy)-3-(2-morpholinoethoxy)-1,6-naphthyridin-7-yl)morpholine]	
1 to 10	100 to 1000	N#CCC(=O)N[C@H]1CC[C@@H](Oc2nc(N3CCOCC3)cc3ncccc23)CC1 [Compound 107, 2-Cyano-N-((1s,4s)-4-((7-morpholino-1,6-naphthyridin-5-yl)oxy)cyclohexyl)acetamide]	
10 to 150	10000 to 30000	CN(C)C(=O)COc1ccc(N[C@H]2CC[C@@H](Oc3nc(N4CCOCC4)cc4ncccc34)CC2)nn1 [Compound 57, N,N-dimethyl-2-((6-(((1s,4s)-4-((7-morpholino-1,6-naphthyridin-5-yl)oxy)cyclohexyl)amino)pyridazin-3-yl)oxy)acetamide]	
10 to 150	1000 to 10000	CCOC(=O)c1cnc2cc(N3CCOCC3)nc(O[C@H]3CC[C@@H](n4ccnc4)CC3)c2c1 [Compound 163, ethyl 5-(((1s,4s)-4-(1H-imidazol-1-yl)cyclohexyl)oxy)-7-morpholino-1,6-naphthyridine-3-carboxylate]	
1 to 10	100 to 1000	COCC(=O)N[C@H]1CC[C@@H](Oc2nc(N3CCOCC3)cc3ncccc23)CC1 [Compound 105, 2-Methoxy-N-((1s,4s)-4-((7-morpholino-1,6-naphthyridin-5-yl)oxy)cyclohexyl)acetamide]	
10 to 150		CCNC(=O)c1cnc2cc(N3CCOCC3)nc(O[C@H]3CC[C@@H](n4ccnc4)CC3)c2c1 [Compound 168, 5-(((1s,4s)-4-(1H-imidazol-1-yl)cyclohexyl)oxy)-N-ethyl-7-morpholino-1,6-naphthyridine-3-carboxamide]	
10 to 150		CN(C)CC(=O)N[C@H]1CC[C@@H](Oc2nc(N3CCOCC3)cc3ncccc23)CC1 [Compound 106, 2-(Dimethylamino)-N-((1s,4s)-4-((7-morpholino-1,6-naphthyridin-5-yl)oxy)cyclohexyl)acetamide]	
